According to ChEMBL document CHEMBL1201862, “PubChem BioAssay data set” (2004):
Activity calls are given as the source filed them.

Experiments:
[1] = Counterscreen for AddAB inhibitors: absorbance-based bacterial cell-based high throughput dose response assay for inhibitors of bacterial viability. [Related pubchem assays (depositor defined):AID435030, AID449728, AID449731, AID488942, AID488955, AID488956]; assay type: functional
Streptococcus = experiment: GAS UMAA2166 growth inhibition – luminescence, BacTiterGlo, counter-screen for streptokinase expression inhibitor project, dose response (AID 1915); assay type: functional, organism-based;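 further: potency for reduction of bacterial viability or growth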
Exodeoxyribonuclease V = biological target: T1, Exodeoxyribonuclease V (Escherichia coli (strain K12), UniProt P04993+P07648+P08394); experiment: RecBCD inhibition via phage-restricted bacterial growth – absorbance, V66 E. coli, mutant T4 phage, counter-screen for AddAB inhibitor project, dose response (AID 492957); assay type: functional, cell-based, Escherichia coli str. K-12 substr. MG1655
T1 sequence (P04993 whole entry): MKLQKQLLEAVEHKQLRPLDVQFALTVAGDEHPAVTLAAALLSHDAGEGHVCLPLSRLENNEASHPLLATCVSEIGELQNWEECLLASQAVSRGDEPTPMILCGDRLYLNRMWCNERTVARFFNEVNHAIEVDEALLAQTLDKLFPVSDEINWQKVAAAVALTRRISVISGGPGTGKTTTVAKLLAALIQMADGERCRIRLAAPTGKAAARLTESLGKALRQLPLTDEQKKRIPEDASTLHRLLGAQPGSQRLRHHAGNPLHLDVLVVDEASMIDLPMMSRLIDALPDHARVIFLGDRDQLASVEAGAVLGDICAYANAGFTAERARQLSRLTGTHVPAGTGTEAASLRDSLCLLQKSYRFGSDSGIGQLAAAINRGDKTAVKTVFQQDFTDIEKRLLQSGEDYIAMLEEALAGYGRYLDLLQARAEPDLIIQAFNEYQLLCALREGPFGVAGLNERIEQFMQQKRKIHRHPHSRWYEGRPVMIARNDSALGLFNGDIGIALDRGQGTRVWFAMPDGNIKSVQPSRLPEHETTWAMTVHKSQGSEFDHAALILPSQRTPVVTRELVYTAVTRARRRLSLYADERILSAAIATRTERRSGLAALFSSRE
T1 sequence (P07648 whole entry): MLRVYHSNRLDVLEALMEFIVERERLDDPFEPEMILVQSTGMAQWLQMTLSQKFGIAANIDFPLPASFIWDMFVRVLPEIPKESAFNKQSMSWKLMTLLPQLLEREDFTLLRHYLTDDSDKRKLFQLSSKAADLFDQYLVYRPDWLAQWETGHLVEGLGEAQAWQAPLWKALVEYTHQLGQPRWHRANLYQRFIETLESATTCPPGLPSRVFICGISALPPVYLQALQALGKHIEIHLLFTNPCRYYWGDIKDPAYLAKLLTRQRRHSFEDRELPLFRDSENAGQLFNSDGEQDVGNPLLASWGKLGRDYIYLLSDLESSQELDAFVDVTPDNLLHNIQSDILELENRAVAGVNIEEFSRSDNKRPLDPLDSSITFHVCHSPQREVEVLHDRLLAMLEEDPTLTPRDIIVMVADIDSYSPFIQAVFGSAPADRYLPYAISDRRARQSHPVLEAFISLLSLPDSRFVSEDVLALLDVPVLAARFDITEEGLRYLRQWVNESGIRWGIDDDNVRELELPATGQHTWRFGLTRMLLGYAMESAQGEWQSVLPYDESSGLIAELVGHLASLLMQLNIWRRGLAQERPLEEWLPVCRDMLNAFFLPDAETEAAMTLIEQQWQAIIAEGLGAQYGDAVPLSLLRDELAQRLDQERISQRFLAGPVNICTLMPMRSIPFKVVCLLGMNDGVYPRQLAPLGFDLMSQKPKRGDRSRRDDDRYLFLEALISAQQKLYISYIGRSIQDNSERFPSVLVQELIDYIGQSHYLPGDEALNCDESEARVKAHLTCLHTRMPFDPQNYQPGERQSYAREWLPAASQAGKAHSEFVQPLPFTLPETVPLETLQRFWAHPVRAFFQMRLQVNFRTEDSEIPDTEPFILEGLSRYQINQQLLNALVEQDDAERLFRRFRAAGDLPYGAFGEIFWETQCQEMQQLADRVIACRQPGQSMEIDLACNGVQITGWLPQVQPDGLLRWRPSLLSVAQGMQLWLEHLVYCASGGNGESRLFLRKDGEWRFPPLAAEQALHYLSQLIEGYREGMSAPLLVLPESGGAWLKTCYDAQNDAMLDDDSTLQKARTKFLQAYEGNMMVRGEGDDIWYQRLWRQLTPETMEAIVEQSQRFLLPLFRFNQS
T1 sequence (P08394 whole entry): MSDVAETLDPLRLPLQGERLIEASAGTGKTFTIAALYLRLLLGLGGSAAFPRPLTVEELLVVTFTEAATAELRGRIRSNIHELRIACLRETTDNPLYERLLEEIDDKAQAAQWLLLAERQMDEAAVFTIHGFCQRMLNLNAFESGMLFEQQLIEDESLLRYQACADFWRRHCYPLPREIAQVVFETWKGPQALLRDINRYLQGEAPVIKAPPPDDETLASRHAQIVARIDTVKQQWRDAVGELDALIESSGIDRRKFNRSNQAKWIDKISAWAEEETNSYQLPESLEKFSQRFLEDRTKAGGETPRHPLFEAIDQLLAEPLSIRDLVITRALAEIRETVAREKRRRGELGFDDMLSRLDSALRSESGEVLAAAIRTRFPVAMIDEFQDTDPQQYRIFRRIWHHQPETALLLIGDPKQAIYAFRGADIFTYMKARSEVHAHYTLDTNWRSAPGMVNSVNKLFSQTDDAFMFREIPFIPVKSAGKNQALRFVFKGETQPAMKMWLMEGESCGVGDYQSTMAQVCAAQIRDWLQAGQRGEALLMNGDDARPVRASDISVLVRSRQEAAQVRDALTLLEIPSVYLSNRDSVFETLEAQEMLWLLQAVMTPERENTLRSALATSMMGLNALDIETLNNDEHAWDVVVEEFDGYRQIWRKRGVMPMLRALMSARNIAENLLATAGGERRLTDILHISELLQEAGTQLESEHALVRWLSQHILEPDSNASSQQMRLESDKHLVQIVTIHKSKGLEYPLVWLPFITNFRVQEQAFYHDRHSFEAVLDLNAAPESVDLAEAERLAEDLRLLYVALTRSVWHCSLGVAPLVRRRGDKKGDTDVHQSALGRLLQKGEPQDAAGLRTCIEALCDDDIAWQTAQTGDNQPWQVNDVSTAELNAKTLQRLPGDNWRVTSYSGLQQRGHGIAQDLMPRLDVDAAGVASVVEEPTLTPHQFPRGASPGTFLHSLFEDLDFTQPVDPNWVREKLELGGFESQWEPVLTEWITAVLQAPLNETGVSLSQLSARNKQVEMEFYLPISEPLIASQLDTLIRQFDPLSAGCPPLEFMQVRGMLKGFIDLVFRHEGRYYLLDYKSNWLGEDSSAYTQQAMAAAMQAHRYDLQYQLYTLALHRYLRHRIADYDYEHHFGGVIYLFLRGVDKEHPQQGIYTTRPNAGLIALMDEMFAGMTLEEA

COc1ccc(C(NC(=O)C(C)C)c2ccc3cccnc3c2O)cc1 (stereo unspecified)
IC50 [1]: > 119 µM (inactive)
EC50 (Streptococcus): > 150 µM (not active)
IC50 (Exodeoxyribonuclease V): > 119 µM (inactive)

O=C(Cc1ccc([N+](=O)[O-])cc1)N/N=C/c1ccc([N+](=O)[O-])o1
IC50 [1]: 16.6 µM (inactive)
EC50 (Streptococcus): 21.7 µM (active)
IC50 (Exodeoxyribonuclease V): > 39.5 µM (inactive)
